In one assay the target is SMARCA2 (Homo sapiens, UniProt P51531). Put plainly: HiBiT assay for protein degradation, Hela SMARCA2-HiBiT cells (A series).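 As to SMARC A2 Hela HiBit Dmax (%): 24 h compound treatment.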 It is filed as cell-based. Set-up: Hela cells were genetically modified via CRISPR/Cas9 to fuse HiBiT to the carboxy terminus of SMARCA2; host or cells: HeLa (CRISPR/Cas9 HiBiT knock-in). The conditions noted are these: for Dmax: read-out: SMARC A2 Hela HiBit Dmax (%); for DC50: read-out: SMARC A2 Hela HiBit DC50. Here is the method: (§1) Hela cells were genetically modified via CRISPR/Cas9 to fuse HiBiT to the carboxy terminus of SMARCA2 (Promega CS302365) or SMARCA4 (Promega CS3023225). Cells were cultured in DMEM containing 10% FBS and 1% (Vol:Vol) penicillin-streptomycin. […] At the end of experiment, levels of SMARCA2 or SMARCA4 expression were assessed with Nano-Glo® HiBiT Lytic Detection Assay (Promega N3050). IC50 was obtained using the GraphPad Prism data analysis software.

Another assay concerns the target SMARCA4 (Homo sapiens, UniProt P51532). In words: HiBiT assay for protein degradation, Hela SMARCA4-HiBiT cells (A series). It counts as cell-based. More on the design: fuse HiBiT to the carboxy terminus of SMARCA2 (Promega CS302365) or SMARCA4 (Promega CS3023225); host or cells: HeLa (CRISPR/Cas9 HiBiT knock-in). As to conditions: for Dmax: read-out: SMARC A4 Hela HiBit Dmax(%); for DC50: read-out: SMARC A4 Hela HiBit DC50. The protocol: as §1

Setting [1] is: Hela SMARCA2-HiBiT cells, 24 hours treatment.
[2] abbreviates: Hela SMARCA4-HiBiT cells, 24 hours treatment.

Where two headings read alike, the source gives them in different places. Where only a bound is given, the exact number is not on record here.

SMARCA4, sequence (P51532 whole entry): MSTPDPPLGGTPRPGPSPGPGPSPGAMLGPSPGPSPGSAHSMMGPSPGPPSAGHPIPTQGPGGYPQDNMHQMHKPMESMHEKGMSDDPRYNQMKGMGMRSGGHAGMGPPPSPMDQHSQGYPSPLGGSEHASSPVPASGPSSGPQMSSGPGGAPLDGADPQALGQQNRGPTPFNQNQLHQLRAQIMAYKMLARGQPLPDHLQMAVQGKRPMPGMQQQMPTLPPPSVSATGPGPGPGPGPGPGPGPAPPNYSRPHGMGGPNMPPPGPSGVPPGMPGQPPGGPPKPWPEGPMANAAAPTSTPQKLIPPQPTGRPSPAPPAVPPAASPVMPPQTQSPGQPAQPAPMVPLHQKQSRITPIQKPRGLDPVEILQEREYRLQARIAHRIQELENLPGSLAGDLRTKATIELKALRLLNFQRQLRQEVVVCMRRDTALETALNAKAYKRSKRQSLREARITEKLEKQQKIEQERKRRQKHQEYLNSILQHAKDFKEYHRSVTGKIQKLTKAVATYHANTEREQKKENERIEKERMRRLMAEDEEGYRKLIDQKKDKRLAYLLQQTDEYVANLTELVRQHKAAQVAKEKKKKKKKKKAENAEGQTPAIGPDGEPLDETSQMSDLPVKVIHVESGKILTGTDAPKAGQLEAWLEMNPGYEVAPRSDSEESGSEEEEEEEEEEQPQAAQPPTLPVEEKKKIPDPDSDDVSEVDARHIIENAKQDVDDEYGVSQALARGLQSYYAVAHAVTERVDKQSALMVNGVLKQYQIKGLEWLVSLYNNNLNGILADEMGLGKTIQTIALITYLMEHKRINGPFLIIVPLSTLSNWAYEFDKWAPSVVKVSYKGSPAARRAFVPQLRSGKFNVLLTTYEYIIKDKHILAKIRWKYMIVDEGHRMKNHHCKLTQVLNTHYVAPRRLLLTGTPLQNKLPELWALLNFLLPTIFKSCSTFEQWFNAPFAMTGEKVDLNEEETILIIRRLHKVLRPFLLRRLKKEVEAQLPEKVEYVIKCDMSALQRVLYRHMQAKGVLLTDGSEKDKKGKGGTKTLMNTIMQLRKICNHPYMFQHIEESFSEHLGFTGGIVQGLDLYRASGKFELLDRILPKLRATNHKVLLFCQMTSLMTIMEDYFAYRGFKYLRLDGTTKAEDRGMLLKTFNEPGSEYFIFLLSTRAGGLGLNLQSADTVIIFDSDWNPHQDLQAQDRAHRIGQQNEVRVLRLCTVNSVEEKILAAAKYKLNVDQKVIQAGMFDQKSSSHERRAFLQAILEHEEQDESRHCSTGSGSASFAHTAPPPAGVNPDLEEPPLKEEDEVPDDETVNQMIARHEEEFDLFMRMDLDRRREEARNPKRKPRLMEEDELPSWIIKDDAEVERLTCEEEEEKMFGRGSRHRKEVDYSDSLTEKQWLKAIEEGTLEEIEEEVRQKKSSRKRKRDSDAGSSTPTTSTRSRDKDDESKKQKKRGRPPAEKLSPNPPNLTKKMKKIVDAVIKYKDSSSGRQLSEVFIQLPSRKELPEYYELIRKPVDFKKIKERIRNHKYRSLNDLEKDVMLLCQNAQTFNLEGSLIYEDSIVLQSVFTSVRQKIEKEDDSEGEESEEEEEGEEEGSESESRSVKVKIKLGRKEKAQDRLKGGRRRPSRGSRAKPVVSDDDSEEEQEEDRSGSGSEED
SMARCA2, sequence (P51531 whole entry): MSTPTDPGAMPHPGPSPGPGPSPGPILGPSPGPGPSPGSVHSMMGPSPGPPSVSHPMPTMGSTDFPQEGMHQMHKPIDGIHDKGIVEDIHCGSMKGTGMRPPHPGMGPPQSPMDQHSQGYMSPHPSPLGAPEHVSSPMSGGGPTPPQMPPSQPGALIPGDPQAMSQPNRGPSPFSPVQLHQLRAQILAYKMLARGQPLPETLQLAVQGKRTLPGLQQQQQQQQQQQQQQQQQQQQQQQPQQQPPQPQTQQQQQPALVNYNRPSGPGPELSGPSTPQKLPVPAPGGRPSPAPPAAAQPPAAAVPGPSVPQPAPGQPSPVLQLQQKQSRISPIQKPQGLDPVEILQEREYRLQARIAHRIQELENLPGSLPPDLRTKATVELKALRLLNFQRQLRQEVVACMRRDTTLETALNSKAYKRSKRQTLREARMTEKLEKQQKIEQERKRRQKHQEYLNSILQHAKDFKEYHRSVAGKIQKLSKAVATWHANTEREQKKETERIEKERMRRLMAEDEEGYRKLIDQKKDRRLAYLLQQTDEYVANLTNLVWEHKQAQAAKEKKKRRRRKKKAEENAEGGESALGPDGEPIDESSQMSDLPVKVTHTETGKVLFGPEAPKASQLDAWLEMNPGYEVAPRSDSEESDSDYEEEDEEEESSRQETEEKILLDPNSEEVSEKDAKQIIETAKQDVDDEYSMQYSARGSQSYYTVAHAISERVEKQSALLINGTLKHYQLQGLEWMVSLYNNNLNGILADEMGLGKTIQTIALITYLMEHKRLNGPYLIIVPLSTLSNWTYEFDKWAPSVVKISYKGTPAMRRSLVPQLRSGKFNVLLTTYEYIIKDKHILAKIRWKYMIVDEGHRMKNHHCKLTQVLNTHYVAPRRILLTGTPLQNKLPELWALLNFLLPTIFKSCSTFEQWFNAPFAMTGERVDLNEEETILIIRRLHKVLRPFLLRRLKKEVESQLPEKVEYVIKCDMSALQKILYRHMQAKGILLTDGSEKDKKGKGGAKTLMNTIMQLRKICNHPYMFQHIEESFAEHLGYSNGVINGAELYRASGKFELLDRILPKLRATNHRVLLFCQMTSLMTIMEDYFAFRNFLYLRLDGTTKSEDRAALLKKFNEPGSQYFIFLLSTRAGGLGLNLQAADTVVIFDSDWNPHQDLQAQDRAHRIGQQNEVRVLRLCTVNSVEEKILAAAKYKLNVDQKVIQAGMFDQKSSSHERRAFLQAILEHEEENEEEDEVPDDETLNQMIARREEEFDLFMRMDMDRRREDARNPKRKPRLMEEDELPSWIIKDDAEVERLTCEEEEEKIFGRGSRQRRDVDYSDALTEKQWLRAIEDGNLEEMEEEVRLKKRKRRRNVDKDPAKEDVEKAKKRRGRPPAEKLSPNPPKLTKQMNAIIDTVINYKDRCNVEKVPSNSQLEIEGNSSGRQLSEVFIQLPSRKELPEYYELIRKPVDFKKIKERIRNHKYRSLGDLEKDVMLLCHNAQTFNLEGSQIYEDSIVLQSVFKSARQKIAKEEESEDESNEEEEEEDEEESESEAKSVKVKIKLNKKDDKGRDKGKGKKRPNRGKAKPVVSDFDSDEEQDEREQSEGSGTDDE

Consider `Cc1ncsc1-c1ccc([C@H](C)NC(=O)[C@@H]2C[C@@H](O)CN2C(=O)[C@@H](NC(=O)CCN2CCC(c3ccc4c(c3)C3(CCCCC3)c3nc(=O)c5c(Cl)cccc5n3-4)CC2)C(C)(C)C)cc1` [Compound A6, (2S,4R)-1-((S)-2-(3-(4-(4′-chloro-5′-oxo-5′H-spiro[cyclohexane-1,7′-indolo[1,2-a]quinazolin]-9′-yl)piperidin-1-yl)propanamido)-3,3-dimethylbutanoyl)-4-hydroxy-N—((S)-1-(4-(4-methylthiazol-5-yl)phenyl)ethyl) pyrrolidine-2-carboxamide], for which the Dmax at SMARCA2 (HeLa) lay in the range of 70 to 90%; at SMARCA4 (HeLa), 50 to 69%. Moreover, the DC50 at SMARCA2 (setting [1]) is 100 to 500 nM; on SMARCA4 (setting [2]), 501 to 1000 nM.

Take `Cc1ncsc1-c1ccc([C@H](C)NC(=O)[C@@H]2C[C@@H](O)CN2C(=O)[C@@H](NC(=O)CCCN2CCC(c3ccc4c(c3)C3(CCCCC3)c3nc(=O)c5c(Cl)cccc5n3-4)CC2)C(C)(C)C)cc1` [Compound A7, (2S,4R)-1-((S)-2-(4-(4-(4′-chloro-5′-oxo-5′H-spiro[cyclohexane-1,7′-indolo[1,2-a]quinazolin]-9′-yl)piperidin-1-yl)butanamido)-3,3-dimethylbutanoyl)-4-hydroxy-N—((S)-1-(4-(4-methylthiazol-5-yl)phenyl)ethyl) pyrrolidine-2-carboxamide]: the Dmax was 70 to 90% at SMARCA2 (HeLa) and below 50% on SMARCA4 (HeLa). Also, the DC50 on SMARCA2 (setting [1]) is 100 to 500 nM. The “SMARC A4 Hela HiBit DC50(nM)” value at SMARCA4 (setting [2]) is “No fit”.

On to `Cc1ncsc1-c1ccc([C@H](C)NC(=O)[C@@H]2C[C@@H](O)CN2C(=O)[C@@H](NC(=O)CCCCN2CCC(c3ccc4c(c3)C3(CCCCC3)c3nc(=O)c5c(Cl)cccc5n3-4)CC2)C(C)(C)C)cc1` [Compound A8, (2S,4R)-1-((S)-2-(5-(4-(4′-chloro-5′-oxo-5′H-spiro[cyclohexane-1,7′-indolo[1,2-a]quinazolin]-9′-yl)piperidin-1-yl)pentanamido)-3,3-dimethylbutanoyl)-4-hydroxy-N—((S)-1-(4-(4-methylthiazol-5-yl)phenyl)ethyl) pyrrolidine-2-carboxamide], for which the Dmax at SMARCA2 (HeLa) is 70 to 90%; at SMARCA4 (HeLa) it was below 50%. Besides, the DC50 is 100 to 500 nM on SMARCA2 (setting [1]) and above 1000 nM at SMARCA4 (setting [2]).

`Cc1ncsc1-c1ccc([C@H](C)NC(=O)[C@@H]2C[C@@H](O)CN2C(=O)[C@@H](NC(=O)CCCCCN2CCC(c3ccc4c(c3)C3(CCCCC3)c3nc(=O)c5c(Cl)cccc5n3-4)CC2)C(C)(C)C)cc1` [Compound A9, (2S,4R)-1-((S)-2-(6-(4-(4′-chloro-5′-oxo-5′H-spiro[cyclohexane-1,7′-indolo[1,2-a]quinazolin]-9′-yl)piperidin-1-yl)hexanamido)-3,3-dimethylbutanoyl)-4-hydroxy-N—((S)-1-(4-(4-methylthiazol-5-yl)phenyl)ethyl) pyrrolidine-2-carboxamide]: the values for the Dmax at SMARCA2 (HeLa) and on SMARCA4 (HeLa) were above 90% and 50 to 69%, respectively. Further, the DC50 on SMARCA2 (setting [1]) is below 100 nM; on SMARCA4 (setting [2]), 501 to 1000 nM.

With `Cc1ncsc1-c1ccc([C@H](CCCCN2CCC(c3ccc4c(c3)-n3c(nc(=O)c5c(Cl)cccc53)C43CCOCC3)CC2)NC(=O)[C@@H]2C[C@@H](O)CN2C(=O)[C@@H](NC(=O)C2(F)CC2)C(C)(C)C)cc1` [Compound A10, (2S,4R)—N—((S)-5-(4-(4-chloro-5-oxo-2′,3′,5′,6′-tetrahydro-5H-spiro[indolo[1,2-a]quinazoline-7,4′-pyran]-10-yl)piperidin-1-yl)-1-(4-(4-methylthiazol-5-yl)phenyl)pentyl)-1-((S)-2-(1-fluorocyclopropane-1-carboxamido)-3,3-dimethylbutanoyl)-4-hydroxypyrrolidine-2-carboxamide], on SMARCA2 (setting [1]), the DC50 is 501 to 1000 nM and the Dmax is 50 to 69%. In addition, on SMARCA4 (setting [2]), the “SMARC A4 Hela HiBit DC50(nM)” value is listed as “No fit” and the Dmax is below 50%.

For the compound `Cc1ncsc1-c1ccc([C@H](C)NC(=O)[C@@H]2C[C@@H](O)CN2C(=O)[C@@H](NC(=O)[C@H]2CC[C@H](CN3CCC(c4ccc5c(c4)C4(CCCCC4)c4nc(=O)c6c(Cl)cccc6n4-5)CC3)CC2)C(C)(C)C)cc1` [Compound A11, (2S,4R)-1-((S)-2-((1r,4S)-4-((4-(4′-chloro-5′-oxo-5′H-spiro[cyclohexane-1,7′-indolo[1,2-a]quinazolin]-9′-yl)piperidin-1-yl)methyl)cyclohexane-1-carboxamido)-3,3-dimethylbutanoyl)-4-hydroxy-N—((S)-1-(4-(4-methylthiazol-5-yl)phenyl)ethyl)pyrrolidine-2-carboxamide], the Dmax is 70 to 90% at SMARCA2 (HeLa) and below 50% at SMARCA4 (HeLa). At SMARCA2 (setting [1]), the DC50 is below 100 nM. The “SMARC A4 Hela HiBit DC50(nM)” value on SMARCA4 (setting [2]) is given as “No fit”.

In the case of `Cc1ncsc1-c1ccc([C@H](C)NC(=O)[C@@H]2C[C@@H](O)CN2C(=O)[C@@H](NC(=O)[C@H]2CC[C@H](CN3CC(N4CCC(c5ccc6c(c5)C5(CCCCC5)c5nc(=O)c7c(Cl)cccc7n5-6)CC4)C3)CC2)C(C)(C)C)cc1` [Compound A12, (2S,4R)-1-((S)-2-((1r,4S)-4-((3-(4-(4′-chloro-5′-oxo-5′H-spiro[cyclohexane-1,7′-indolo[1,2-a]quinazolin]-9′-yl)piperidin-1-yl)azetidin-1-yl)methyl)cyclohexane-1-carboxamido)-3,3-dimethylbutanoyl)-4-hydroxy-N—((S)-1-(4-(4-methylthiazol-5-yl)phenyl)ethyl)pyrrolidine-2-carboxamide], at SMARCA2 (setting [1]), the DC50 is 100 to 500 nM and the Dmax was in the range of 70 to 90%. Also, at SMARCA4 (setting [2]), the DC50 lay within 501 to 1000 nM and the Dmax lay within 50 to 69%.

Consider `Cc1ncsc1-c1ccc([C@H](C)NC(=O)[C@@H]2C[C@@H](O)CN2C(=O)[C@@H](NC(=O)[C@H]2CC[C@H](CN3CCC(N4CCC(c5ccc6c(c5)C5(CCCCC5)c5nc(=O)c7c(Cl)cccc7n5-6)CC4)CC3)CC2)C(C)(C)C)cc1` [Compound A13, (2S,4R)-1-((S)-2-((1r,4S)-4-((4-(4′-chloro-5′-oxo-5′H-spiro[cyclohexane-1,7′-indolo[1,2-a]quinazolin]-9′-yl)-[1,4′-bipiperidin]-1′-yl)methyl)cyclohexane-1-carboxamido)-3,3-dimethylbutanoyl)-4-hydroxy-N—((S)-1-(4-(4-methylthiazol-5-yl)phenyl)ethyl)pyrrolidine-2-carboxamide], for which, at SMARCA2 (setting [1]), the DC50 was below 100 nM and the Dmax was 70 to 90%. For the same compound, at SMARCA4 (setting [2]), the “SMARC A4 Hela HiBit DC50(nM)” value is “No fit” and the Dmax is below 50%.

For the compound `Cc1ncsc1-c1ccc([C@H](C)NC(=O)[C@@H]2C[C@@H](O)CN2C(=O)[C@@H](NC(=O)[C@H]2CC[C@H](CN3CCC(c4ccc5c(c4)C4(CCCCC4)c4nc(=O)c6c(Br)cccc6n4-5)CC3)CC2)C(C)(C)C)cc1` [Compound A14, (2S,4R)-1-((S)-2-((1r,4S)-4-((4-(4′-bromo-5′-oxo-5′H-spiro[cyclohexane-1,7′-indolo[1,2-a]quinazolin]-9′-yl)piperidin-1-yl)methyl)cyclohexane-1-carboxamido)-3,3-dimethylbutanoyl)-4-hydroxy-N—((S)-1-(4-(4-methylthiazol-5-yl)phenyl)ethyl)pyrrolidine-2-carboxamide], the Dmax at SMARCA2 (HeLa) is above 90%; at SMARCA4 (HeLa) it was 50 to 69%. For the same compound, the DC50 on SMARCA2 (setting [1]) was below 100 nM; on SMARCA4 (setting [2]) it was 100 to 500 nM.

In the case of `Cc1ncsc1-c1ccc([C@H](CN(C)C)NC(=O)[C@@H]2C[C@@H](O)CN2C(=O)[C@@H](NC(=O)[C@H]2CC[C@H](CN3CCC(c4ccc5c(c4)C4(CCCCC4)c4nc(=O)c6c(Br)cccc6n4-5)CC3)CC2)C(C)(C)C)cc1` [Compound A15], at SMARCA2 (setting [1]), the DC50 was below 100 nM and the Dmax is above 90%. In addition, at SMARCA4 (setting [2]), the “SMARC A4 Hela HiBit DC50(nM)” value is recorded as “No Fit” and the Dmax was below 50%.

As for `Cc1ncsc1-c1ccc([C@H](CN2CCOCC2)NC(=O)[C@@H]2C[C@@H](O)CN2C(=O)[C@@H](NC(=O)[C@H]2CC[C@H](CN3CCC(c4ccc5c(c4)C4(CCCCC4)c4nc(=O)c6c(Br)cccc6n4-5)CC3)CC2)C(C)(C)C)cc1` [Compound A16, (2S,4R)-1-((S)-2-((1r,4S)-4-((4-(4′-bromo-5′-oxo-5′H-spiro[cyclohexane-1,7′-indolo[1,2-a]quinazolin]-9′-yl)piperidin-1-yl)methyl)cyclohexane-1-carboxamido)-3,3-dimethylbutanoyl)-4-hydroxy-N—((R)-1-(4-(4-methylthiazol-5-yl)phenyl)-2-morpholinoethyl)pyrrolidine-2-carboxamide], on SMARCA2 (setting [1]), the DC50 is below 100 nM and the Dmax is above 90%. Further, on SMARCA4 (setting [2]), the DC50 lay within 501 to 1000 nM and the Dmax was 50 to 69%.

The values above are taken from patent US20260092071A1, “COMPOUNDS AND COMPOSITIONS AS SMARCA2/4 DEGRADERS AND USES THEREOF” (REGENTS OF THE UNIVERSITY OF MICHIGAN, priority 2022, published 2026).
